Measurements as given in the supplement of paper PMC10307832.

What was measured:
Experiment in all cases: relative viability (nuclei count vs DMSO), 5 days (fraction); higher = more cells survive
Afatinib + Tozasertib = compound: CN(C)C/C=C/C(=O)Nc1cc2c(Nc3ccc(F)c(Cl)c3)ncnc2cc1O[C@H]1CCOC1 [Afatinib] + Cc1cc(Nc2cc(N3CCN(C)CC3)nc(Sc3ccc(NC(=O)C4CC4)cc3)n2)n[nH]1 [Tozasertib] (partner 0.1 µM)
In short: (§1)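 For relative viability, nuclei counts in treated wells were divided by those in vehicle wells. Lung cancer cell lines had been pin-tool dosed in 1536-well plates the day after seeding and cultured for 5 days, then fixed and stained in one step (final 0.05% Triton X-100, 1% formaldehyde, 1 ug/ml Hoechst) and imaged at 4×. Doses were one drug alone or a fixed anchor-drug dose plus five library-drug doses (not always all listed) in √10 steps, and values are duplicate-plate medians.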

Afatinib + Foretinib = compound: CN(C)C/C=C/C(=O)Nc1cc2c(Nc3ccc(F)c(Cl)c3)ncnc2cc1O[C@H]1CCOC1 [Afatinib] + COc1cc2c(Oc3ccc(NC(=O)C4(C(=O)Nc5ccc(F)cc5)CC4)cc3F)ccnc2cc1OCCCN1CCOCC1 [Foretinib] (partner 0.25 µM)
In short: as §1

Afatinib + Luminespib = compound: CN(C)C/C=C/C(=O)Nc1cc2c(Nc3ccc(F)c(Cl)c3)ncnc2cc1O[C@H]1CCOC1 [Afatinib] + CCNC(=O)c1noc(-c2cc(C(C)C)c(O)cc2O)c1-c1ccc(CN2CCOCC2)cc1 [Luminespib] (partner 0.01 µM)
In short: as §1

Afatinib + AZD7762 = compound: CN(C)C/C=C/C(=O)Nc1cc2c(Nc3ccc(F)c(Cl)c3)ncnc2cc1O[C@H]1CCOC1 [Afatinib] + NC(=O)Nc1cc(-c2cccc(F)c2)sc1C(=O)N[C@H]1CCCNC1 [AZD7762] (partner 0.2 µM)
In short: as §1

Row | Cell Line | relative viability (Afatinib + Tozasertib; first compound 0.005 µM) | relative viability (Afatinib + Tozasertib; first compound 0.01581 µM) | relative viability (Afatinib + Tozasertib; first compound 0.05 µM) | relative viability (Afatinib + Tozasertib; first compound 0.1581 µM) | relative viability (Afatinib + Tozasertib; first compound 0.5 µM) | relative viability (Afatinib + Foretinib; first compound 0.005 µM) | relative viability (Afatinib + Foretinib; first compound 0.01581 µM) | relative viability (Afatinib + Foretinib; first compound 0.05 µM) | relative viability (Afatinib + Foretinib; first compound 0.1581 µM) | relative viability (Afatinib + Foretinib; first compound 0.5 µM) | relative viability (Afatinib + Luminespib; first compound 0.005 µM) | relative viability (Afatinib + Luminespib; first compound 0.01581 µM) | relative viability (Afatinib + Luminespib; first compound 0.05 µM) | relative viability (Afatinib + Luminespib; first compound 0.1581 µM) | relative viability (Afatinib + Luminespib; first compound 0.5 µM) | relative viability (Afatinib + AZD7762; first compound 0.005 µM) | relative viability (Afatinib + AZD7762; first compound 0.01581 µM) | relative viability (Afatinib + AZD7762; first compound 0.05 µM) | relative viability (Afatinib + AZD7762; first compound 0.1581 µM) | relative viability (Afatinib + AZD7762; first compound 0.5 µM)
1 | NCI-H2170 | 0.651 | 0.574 | 0.355 | 0.221 | 0.203 | 0.962 | 1.01 | 0.906 | 0.369 | 0.294 | 0.831 | 0.671 | 0.449 | 0.163 | 0.231 | 0.66 | 0.55 | 0.245 | 0.144 | 0.151
2 | NCI-H2342 | 0.464 | 0.545 | 0.472 | 0.421 | 0.393 | 0.892 | 0.895 | 0.856 | 0.743 | 0.774 | 0.713 | 0.648 | 0.699 | 0.627 | 0.583 | 0.562 | 0.488 | 0.477 | 0.434 | 0.474
3 | NCI-H2347 | 0.509 | 0.593 | 0.596 | 0.484 | 0.603 | 1.08 | 0.842 | 1.03 | 0.899 | 0.518 | 0.295 | 0.352 | 0.555 | 0.404 | 0.316 | 0.568 | 0.738 | 0.589 | 0.725 | 0.541
4 | NCI-H2405 | 0.779 | 0.741 | 0.741 | 0.646 | 0.824 | 1.07 | 1.02 | 1.05 | 0.978 | 1.08 | 0.578 | 0.695 | 0.648 | 0.388 | 0.441 | 0.763 | 0.759 | 0.839 | 0.666 | 0.562
5 | NCI-H3122 | 0.452 | 0.504 | 0.394 | 0.327 | 0.459 | 0.924 | 0.982 | 0.949 | 0.906 | 0.938 | 0.103 | 0.0816 | 0.0898 | 0.0996 | 0.0859 | 1.07 | 0.985 | 0.991 | 0.883 | 1.05
6 | PC-3 [JPC-3] | 0.443 | 0.416 | 0.428 | 0.291 | 0.37 | 0.472 | 0.508 | 0.42 | 0.388 | 0.343 | 0.54 | 0.402 | 0.445 | 0.277 | 0.415 | 0.52 | 0.413 | 0.307 | 0.353 | 0.422
7 | PC-14 | 0.228 | 0.257 | 0.254 | 0.232 | 0.247 | 0.45 | 0.149 | 0.184 | 0.179 | 0.183 | 0.152 | 0.115 | 0.19 | 0.126 | 0.144 | 0.235 | 0.157 | 0.139 | 0.166 | 0.14
8 | RERF-LC-KJ | 0.502 | 0.611 | 0.575 | 0.424 | 0.484 | 0.844 | 0.86 | 0.82 | 0.8 | 0.794 | 1.19 | 1.11 | 1.19 | 1.1 | 1.08 | 1.01 | 0.827 | 0.865 | 0.84 | 0.778
9 | SW 900 | 0.576 | 0.646 | 0.61 | 0.438 | 0.444 | 1.06 | 1.18 | 0.873 | 0.725 | 0.679 | 0.182 | 0.198 | – | 0.187 | 0.173 | 0.48 | 0.546 | 0.615 | 0.501 | 0.548
